Data taken from patent US20260174757A1, “COMPOSITIONS AND METHODS FOR TREATING PULMONARY ARTERIAL HYPERTENSION” (Inhibikase Therapeutics, Inc., priority 2024, published 2026).
Counter-ions that a name gives are not always drawn. Like-named read-outs stand apart in the source and are kept apart here.

How the values were obtained:
[1] = imatinib mesylate in NHP, Q.D.; from NDA 21-335; cited from earlier work
[2] = steady state, Day 91, NOAEL 15 mg/kg, from NDA 21-335, cited from earlier work
[3] = Comparative toxicology in non-human primate (NOAEL); settings: cynomolgus macaque, in vivo; 28-day GLP toxicology study in cynomolgus macaques; read-out: No Adverse Effect Level (NOAEL)
From the text: The compound of formula (I) was originally developed to address on-dosing side effects of imatinib therapy. In particular, up to 50% of imatinib patients experience persistent Grade 2 or less gastrointestinal (GI) adverse events during treatment for blood or stomach cancers, and during the previous imatinib trials, up to ⅓ of participants experienced these GI events including 3% of participants experiencing SAEs due to GI disturbance. The compound of formula (I) was developed specifically to reduce these events with the expectations that improvement in other off-target or unintended side effects of this therapy could follow. To illustrate the potential of the compound of formula (I) to minimize GI disturbance, the compound was evaluated in comparative toxicology experiments in non-human primate (NHP).

[4] = human, in vivo
From the text: Additionally, the clinical pharmacokinetics for each cohort of healthy subjects studied for the compound of formula (I) using the designs were summarized.

Cc1ccc(NC(=O)c2ccc(CN3CCN(C)CC3)cc2)cc1Nc1nccc(-c2cccnc2)n1 [Imatinib mesylate, imatinib mesylate]
No Adverse Effect Level (NOAEL) [1]: 15 mg/kg | AUC0-last (mean) ([2]; female): 1960 ng·h/mL | AUC0-last (mean) ([2]; male): 1540 ng·h/mL

CCC(C)OC(=O)OC[N+]1(C)CCN(Cc2ccc(C(=O)Nc3ccc(C)c(Nc4nccc(-c5cccnc5)n4)c3)cc2)CC1 (stereo not shown) [IkT-001Pro]
NOAEL at 28 day [3]: 75 mg/kg | dose dependence of single dose Cmax and AUC0-inf [4]: increased linearly with dose | AUC0-last ([4]; 300 mg): 17820 ng·h/mL | CL/F ([4]; 300 mg): 14.03 L/h | Cmax ([4]; 300 mg): 926.1 ng/mL | Tmax ([4]; 300 mg): 5.33 h | Vz/F ([4]; 300 mg): 331.4 L | AUC0-last ([4]; 400 mg): 30100 ng·h/mL | CL/F ([4]; 400 mg): 10.82 L/h | Cmax ([4]; 400 mg): 1563 ng/mL | Tmax ([4]; 400 mg): 5.75 h | Vz/F ([4]; 400 mg): 247.5 L | AUC0-last ([4]; 500 mg): 38440 ng·h/mL | CL/F ([4]; 500 mg): 11.29 L/h | Cmax ([4]; 500 mg): 1836 ng/mL | Tmax ([4]; 500 mg): 5.75 h | Vz/F ([4]; 500 mg): 303.8 L | AUC0-inf LSM (plasma imatinib) ([4]; 600 mg): 41202.597 | AUC0-last LSM (plasma imatinib) ([4]; 600 mg): 40456.384 | Cmax LSM (plasma imatinib) ([4]; 600 mg): 1939.51 | AUC0-inf LSM ([4]; 800 mg): 50840.298 | AUC0-last ([4]; 800 mg): 51430 ng·h/mL | AUC0-last LSM ([4]; 800 mg): 50220.802 | CL/F ([4]; 800 mg): 12.8 L/h | Cmax ([4]; 800 mg): 2467 ng/mL | Cmax LSM ([4]; 800 mg): 2409.131 | Tmax ([4]; 800 mg): 5.5 h | Vz/F ([4]; 800 mg): 272 L
